Assay results: US8987171B2, “Selective herbicides with activator adjuvants” (W. Neudorff GmbH KG, priority 2010, dated 2015)
Where two headings read alike, the source gives them in different places.

Key:
[1] = test system: park lawn; assay: Field English daisy and turf test, iron chelates with Sylgard 309 and Bio-Soft D-40 (Example 9): grass damage; format: in vivo; conditions: sprayed twice at 100 ml/m^2, 7 days after first spraying, visual rating 0-100%
Protocol: (§1) The following non-limiting examples serve to further describe the invention. Unless otherwise specified, all of the iron solutions were made using the same molar concentration of iron ion as chelating agent. Samples were prepared by diluting a metal chelate, such as iron GLDA (Dissolvine GL-Fe-5), iron EDDS (Enviomet C320), or iron HEDTA (Neu 1173H), to the desired level of iron as specified using simple stirring. Neu 1173H contains the stabilizer sodium citrate at 1.5% prior to dilution. Dilutions of Neu1173H to the level of 0.25% Fe, incorporates 0.08% sodium citrate into the spray solutions. Adjuvants (Sylgard® 309, Biosoft®D-40, Tween® 20), were then diluted and added to the diluted metal chelate. Samples were usually prepared within 48 hours of spraying. All of the outside tests were done on areas of mixed grass and white clover that were at least 2 months old. For the greenhouse tests, white clover and black medic were grown in a commercial greenhouse mix using supplemental lighting and heating. Each plant was grown in a 2¼ inch pot to a minimum diameter of 15-20 cm. Perennial ryegrass was grown in 2¼ inch pots in the same greenhouse conditions as above and they are at least 4 weeks old at the time of application. […]
(§2) All plant damage was visually assessed using a percentage rating scale from 0 (no injury) to 100% (death). […]

[2] = test system: perennial ryegrass; assay: Greenhouse black medic and turf test, iron chelates with Sylgard 309 (Example 2): grass damage; format: in vivo; conditions: sprayed twice at 200 ml/m^2, 7 days after first spraying, visual rating 0-100%
Protocol: as §1, §2

[3] = test system: English daisy; assay: Field English daisy and turf test, iron chelates with Sylgard 309 and Bio-Soft D-40 (Example 9): English daisy damage; format: in vivo, English daisy (Bellis perennis); conditions: sprayed twice at 100 ml/m^2, 7 days after first spraying, visual rating 0-100%
Protocol: as §1, §2

[4] = test system: perennial ryegrass; assay: Greenhouse white clover and turf test, iron chelates with Sylgard 309 (Example 6): grass damage; format: in vivo; conditions: sprayed twice at 200 ml/m^2, 14 days after second spraying, visual rating 0-100%
Protocol: as §1, §2

[5] = test system: black medic; assay: Greenhouse black medic and turf test, iron chelates with Sylgard 309 (Example 2): black medic damage; format: in vivo; conditions: sprayed twice at 200 ml/m^2, 7 days after first spraying, visual rating 0-100%
Protocol: as §1, §2

[6] = test system: white clover; assay: Greenhouse white clover and turf test, iron chelates with Sylgard 309 (Example 6): white clover damage; format: in vivo, white clover (Trifolium repens); conditions: sprayed twice at 200 ml/m^2, 14 days after second spraying, visual rating 0-100%
Protocol: as §1, §2

[7] = test system: white clover; assay: Greenhouse white clover and turf test, iron chelates with Tween 20 (Example 5): white clover damage; format: in vivo, white clover (Trifolium repens); conditions: sprayed twice at 200 ml/m^2, one day after first spraying, visual rating 0-100%
Protocol: as §1, §2

[8] = test system: English daisy; assay: Field English daisy and turf test, iron chelates with Sylgard 309 (Example 8): English daisy damage; format: in vivo, English daisy (Bellis perennis); conditions: sprayed twice at 200 ml/m^2, 5 days after first spraying, visual rating 0-100%
Protocol: as §1, §2

[9] = test system: perennial ryegrass; format: in vivo; conditions: greenhouse, sprayed twice at 200 ml/m^2, one day after first spraying, visual rating 0-100%
Protocol: as §1, §2

[10] = test system: white clover; assay: Field white clover and turf test, iron chelates with Bio-Soft D-40 (Example 4): white clover damage; format: in vivo, white clover (Trifolium repens); conditions: sprayed twice at 200 ml/m^2, 14 days after second spraying, visual rating 0-100%
Protocol: as §1, §2

[11] = test system: white clover; assay: Greenhouse white clover and turf test, iron chelates with Bio-Soft D-40 (Example 3): white clover damage; format: in vivo, white clover (Trifolium repens); conditions: sprayed twice at 200 ml/m^2, one day after first spraying, visual rating 0-100%
Protocol: as §1, §2

[12] = test system: perennial ryegrass; assay: Greenhouse white clover and turf test, iron chelates with Sylgard 309 (Example 1): grass damage; format: in vivo; conditions: sprayed twice at 200 ml/m^2, 7 days after second spraying, visual rating 0 (no injury) to 100% (death)
Protocol: as §1, §2

[13] = test system: park lawn; assay: Field white clover and turf test, iron chelates with Bio-Soft D-40 (Example 4): grass damage; format: in vivo; conditions: sprayed twice at 200 ml/m^2, 14 days after second spraying, visual rating 0-100%
Protocol: as §1, §2

[14] = test system: white clover; assay: Greenhouse white clover and turf test, iron chelates with Sylgard 309 (Example 1): white clover damage; format: in vivo, white clover (Trifolium repens); conditions: sprayed twice at 200 ml/m^2, 7 days after second spraying, visual rating 0-100%
Protocol: as §1, §2

[15] = test system: perennial ryegrass; assay: Greenhouse white clover and turf test, iron chelates with Tween 20 (Example 5): grass damage; format: in vivo; conditions: sprayed twice at 200 ml/m^2, one day after first spraying, visual rating 0-100%
Protocol: as §1, §2

[16] = test system: park lawn; assay: Field English daisy and turf test, iron chelates with Sylgard 309 (Example 8): grass damage; format: in vivo; conditions: sprayed twice at 200 ml/m^2, 5 days after first spraying, visual rating 0-100%
Protocol: as §1, §2

[17] = test system: dandelion; assay: Greenhouse dandelion and turf test, iron chelates with Sylgard 309 (Example 7): dandelion damage; format: in vivo, dandelion (Taraxacum officinale); conditions: sprayed twice at 200 ml/m^2, 7 days after first spraying, visual rating 0-100%
Protocol: as §1, §2

[18] = test system: perennial ryegrass; assay: Greenhouse dandelion and turf test, iron chelates with Sylgard 309 (Example 7): grass damage; format: in vivo; conditions: sprayed twice at 200 ml/m^2, 7 days after first spraying, visual rating 0-100%
Protocol: as §1, §2

## iron hydroxyethylenediaminetriacetic acid [FeHEDTA 1.5% a.i (0.25% Fe)]
[1]
  Grass Damage (%): 2%
[2]
  Grass Damage (%): 3%
[3]
  English daisy Damage (%): 81%
[4]
  Grass Damage (%): 2%
[5]
  Black Medic Damage (%): 54%
[6]
  White Clover Damage (%): 46%

## iron ethylenediaminedisuccinate [FeEDDS 2.49% a.i. (0.4% Fe)]
[7]
  White Clover Damage (%): 18%
[8]
  English daisy Damage (%): 39%
[9]
  Grass Damage (%): 1%
[10]
  White Clover Damage (%): 38%
[11]
  White Clover Damage (%): 15%
[12]
  Grass Damage (%): 3%
[2]
  Grass Damage (%): 2%
[5]
  Black Medic Damage (%): 28%
[13]
  Grass Damage (%): 1%
[14]
  White Clover Damage (%): 27%
[15]
  Grass Damage (%): 0%
[16]
  Grass Damage (%): 4%

## iron glutamicaciddiacetic acid [FeGLDA 2.28% a.i. (0.4% Fe)]
[9]
  Grass Damage (%): 0%
[11]
  White Clover Damage (%): 8%
[17]
  Dandelion Damage (%): 38%
[12]
  Grass Damage (%): 8%
[18]
  Grass Damage (%): 6%
[14]
  White Clover Damage (%): 7%
